# Source: PubChem BioAssay (NCI)
#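 Five compound concentrations were applied to cells in 96-well plates for 48 hours; endpoints were derived by simple linear interpolation of the resulting dose-response curve. GI50 is the concentration that inhibits growth by half. TGI marks complete inhibition of growth.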
# How the values were obtained:
# Experiment in all cases: DTP human tumour cell line panel, 48 h
# UO-31 renal = system: UO-31 renal
# OVCAR-5 ovarian = system: OVCAR-5 ovarian
# SW-620 colon = system: SW-620 colon
# CCRF-CEM leukemia = system: CCRF-CEM leukemia
# IGROV1 ovarian = system: IGROV1 ovarian
# ACHN renal = system: ACHN renal
# HCT-15 colon = system: HCT-15 colon
# U251 CNS = system: U251 CNS
# OVCAR-8 ovarian = system: OVCAR-8 ovarian
# PC-3 prostate = system: PC-3 prostate
# MCF7 breast = system: MCF7 breast
# NCI-H522 lung = system: NCI-H522 lung
# SK-MEL-28 melanoma = system: SK-MEL-28 melanoma
# TK-10 renal = system: TK-10 renal
# SF-539 CNS = system: SF-539 CNS
# SK-OV-3 ovarian = system: SK-OV-3 ovarian
# SNB-19 CNS = system: SNB-19 CNS
# HT29 colon = system: HT29 colon
# KM12 colon = system: KM12 colon
# SN12C renal = system: SN12C renal
# LOX IMVI melanoma = system: LOX IMVI melanoma
# MALME-3M melanoma = system: MALME-3M melanoma
# K-562 leukemia = system: K-562 leukemia
# NCI-H460 lung = system: NCI-H460 lung
# RPMI-8226 leukemia = system: RPMI-8226 leukemia
# CAKI-1 renal = system: CAKI-1 renal
# HL-60(TB) leukemia = system: HL-60(TB) leukemia
# NCI-H226 lung = system: NCI-H226 lung
# MDA-MB-231 breast = system: MDA-MB-231 breast
# COLO 205 colon = system: COLO 205 colon
# MOLT-4 leukemia = system: MOLT-4 leukemia
# HCT-116 colon = system: HCT-116 colon
# OVCAR-3 ovarian = system: OVCAR-3 ovarian
# HCC-2998 colon = system: HCC-2998 colon
# HS 578T breast = system: HS 578T breast
# NCI-H23 lung = system: NCI-H23 lung
# BT-549 breast = system: BT-549 breast
# SNB-75 CNS = system: SNB-75 CNS
# SF-295 CNS = system: SF-295 CNS
# SK-MEL-2 melanoma = system: SK-MEL-2 melanoma
# HOP-62 NSCLC = system: HOP-62 NSCLC
# SF-268 CNS = system: SF-268 CNS
# OVCAR-4 ovarian = system: OVCAR-4 ovarian
# DU-145 prostate = system: DU-145 prostate
# T-47D breast = system: T-47D breast
# A498 renal = system: A498 renal
# NCI/ADR-RES ovarian = system: NCI/ADR-RES ovarian
# SK-MEL-5 melanoma = system: SK-MEL-5 melanoma
# EKVX NSCLC = system: EKVX NSCLC
# SR leukemia = system: SR leukemia
# A549 NSCLC = system: A549 NSCLC
# 786-0 renal = system: 786-0 renal
# HOP-92 NSCLC = system: HOP-92 NSCLC
# UACC-62 melanoma = system: UACC-62 melanoma
# UACC-257 melanoma = system: UACC-257 melanoma
smiles,measurement,setting,value
COc1ccc(/C=C(/C(=O)N2CCCC2)c2cc(OC)c(OC)c(OC)c2)cc1N,GI50,UO-31 renal,6.87 µM
same,TGI,UO-31 renal,> 100 µM
same,GI50,OVCAR-5 ovarian,7.63 µM
same,TGI,OVCAR-5 ovarian,> 100 µM
same,GI50,SW-620 colon,2.48 µM
same,TGI,SW-620 colon,> 100 µM
same,GI50,CCRF-CEM leukemia,3.19 µM
same,TGI,CCRF-CEM leukemia,> 100 µM
same,GI50,IGROV1 ovarian,3.93 µM
same,TGI,IGROV1 ovarian,> 100 µM
same,GI50,ACHN renal,5.73 µM
same,TGI,ACHN renal,> 100 µM
same,GI50,HCT-15 colon,2.28 µM
same,TGI,HCT-15 colon,> 100 µM
same,GI50,U251 CNS,4.18 µM
same,TGI,U251 CNS,> 100 µM
same,GI50,OVCAR-8 ovarian,8.92 µM
same,TGI,OVCAR-8 ovarian,> 100 µM
same,GI50,PC-3 prostate,2.1 µM
same,TGI,PC-3 prostate,> 100 µM
same,GI50,MCF7 breast,0.921 µM
same,TGI,MCF7 breast,> 100 µM
same,GI50,NCI-H522 lung,2.34 µM
same,TGI,NCI-H522 lung,> 100 µM
same,GI50,SK-MEL-28 melanoma,5.68 µM
same,TGI,SK-MEL-28 melanoma,> 100 µM
same,GI50,TK-10 renal,11.1 µM
same,TGI,TK-10 renal,> 100 µM
same,GI50,SF-539 CNS,1.9 µM
same,TGI,SF-539 CNS,6.75 µM
same,GI50,SK-OV-3 ovarian,2.78 µM
same,TGI,SK-OV-3 ovarian,> 100 µM
same,GI50,SNB-19 CNS,2.87 µM
same,TGI,SNB-19 CNS,> 100 µM
same,GI50,HT29 colon,2.3 µM
same,TGI,HT29 colon,> 100 µM
same,GI50,KM12 colon,1.55 µM
same,TGI,KM12 colon,> 100 µM
same,GI50,SN12C renal,4.86 µM
same,TGI,SN12C renal,> 100 µM
same,GI50,LOX IMVI melanoma,3.77 µM
same,TGI,LOX IMVI melanoma,> 100 µM
same,GI50,MALME-3M melanoma,4.25 µM
same,TGI,MALME-3M melanoma,> 100 µM
same,GI50,K-562 leukemia,0.926 µM
same,TGI,K-562 leukemia,> 100 µM
same,GI50,NCI-H460 lung,2.96 µM
same,TGI,NCI-H460 lung,> 100 µM
same,GI50,RPMI-8226 leukemia,4.05 µM
same,TGI,RPMI-8226 leukemia,> 100 µM
same,GI50,CAKI-1 renal,2.35 µM
same,TGI,CAKI-1 renal,> 100 µM
same,GI50,HL-60(TB) leukemia,2.07 µM
same,TGI,HL-60(TB) leukemia,7.65 µM
same,GI50,NCI-H226 lung,4.44 µM
same,TGI,NCI-H226 lung,> 100 µM
same,GI50,MDA-MB-231 breast,5.75 µM
same,TGI,MDA-MB-231 breast,> 100 µM
same,GI50,COLO 205 colon,3.06 µM
same,TGI,COLO 205 colon,11 µM
same,GI50,MOLT-4 leukemia,4.74 µM
same,TGI,MOLT-4 leukemia,> 100 µM
same,GI50,HCT-116 colon,1.08 µM
same,TGI,HCT-116 colon,> 100 µM
same,GI50,OVCAR-3 ovarian,0.992 µM
same,TGI,OVCAR-3 ovarian,6.34 µM
same,GI50,HCC-2998 colon,6.76 µM
same,TGI,HCC-2998 colon,> 100 µM
same,GI50,HS 578T breast,2.41 µM
same,TGI,HS 578T breast,> 100 µM
same,GI50,NCI-H23 lung,4.61 µM
same,TGI,NCI-H23 lung,> 100 µM
same,GI50,BT-549 breast,6.52 µM
same,TGI,BT-549 breast,57.8 µM
same,GI50,SNB-75 CNS,2.18 µM
same,TGI,SNB-75 CNS,> 100 µM
same,GI50,SF-295 CNS,1.11 µM
same,TGI,SF-295 CNS,> 100 µM
same,GI50,SK-MEL-2 melanoma,4.72 µM
same,TGI,SK-MEL-2 melanoma,> 100 µM
same,GI50,HOP-62 NSCLC,4.07 µM
same,TGI,HOP-62 NSCLC,> 100 µM
same,GI50,SF-268 CNS,5.44 µM
same,TGI,SF-268 CNS,> 100 µM
same,GI50,OVCAR-4 ovarian,28.2 µM
same,TGI,OVCAR-4 ovarian,> 100 µM
same,GI50,DU-145 prostate,2.65 µM
same,TGI,DU-145 prostate,> 100 µM
same,GI50,T-47D breast,3.91 µM
same,TGI,T-47D breast,> 100 µM
same,GI50,A498 renal,1.26 µM
same,TGI,A498 renal,> 100 µM
same,GI50,NCI/ADR-RES ovarian,4.21 µM
same,TGI,NCI/ADR-RES ovarian,63.9 µM
same,GI50,SK-MEL-5 melanoma,2.51 µM
same,TGI,SK-MEL-5 melanoma,> 100 µM
same,GI50,EKVX NSCLC,4.63 µM
same,TGI,EKVX NSCLC,> 100 µM
same,GI50,SR leukemia,0.719 µM
same,TGI,SR leukemia,> 100 µM
same,GI50,A549 NSCLC,4.14 µM
same,TGI,A549 NSCLC,> 100 µM
same,GI50,786-0 renal,2.7 µM
same,TGI,786-0 renal,> 100 µM
same,GI50,HOP-92 NSCLC,9.92 µM
same,TGI,HOP-92 NSCLC,> 100 µM
same,GI50,UACC-62 melanoma,1.03 µM
same,TGI,UACC-62 melanoma,> 100 µM
same,GI50,UACC-257 melanoma,> 100 µM
same,TGI,UACC-257 melanoma,> 100 µM
